Consider 28 molecules from patent publication US20120165309A1, “HETERO RING DERIVATIVE” (Astellas Pharma Inc., priority 2009, published 2012).

As usually defined, the IC50 is the midpoint of a concentration-inhibition curve.

The target in experiment [1] is T1, human PI3Kδ enzyme (Homo sapiens, UniProt O00329).
T1 construct: purchased Millipore Corporation 14-604
In words: PI3Kδ enzyme inhibitory activity (PI3-Kinase HTRF Assay kit). The note with it: human PI3Kδ 10 ng/well, ATP 30 μM, PIP2 10 μM, room temperature 30 minutes. The format is biochemical. How it is done: 1. PI3Kδ Enzyme Inhibitory Activity
For the experiment, a PI3-Kinase HTRF Assay kit (Millipore Corporation, Catalogue No. 33-016) and a human PI3Kδ enzyme (Millipore Corporation, Catalogue No. 14-604) were used. The measurement method was in accordance with the appended instructions. The overview thereof is as follows.
PI3Kδ (10 ng/well), phosphatidylinositol-4,5-bisphosphate (10 μM), ATP (30 μM), and the test compound were mixed in a 384-well plate (total 20 μL), and incubated at room temperature for 30 minutes. EDTA and biotinylated phosphatidylinositol-3,4,5-triphosphate were added thereto to stop the reaction. Thereafter, a Europium labeled anti-GST antibody, a GST bond GRP1 PH domain, and streptavidin-APC were added thereto, followed by incubation overnight. An HTRF ratio was measured using an HTRF plate reader. The IC50 value of the compound was calculated, taking the inhibition rate without addition of the enzyme as 100% and the inhibition rate without addition of the test compound as 0%, by means of a logistic method.
(§1) In the Table, Ex represents Example Compound No. as described later, PI3Kδ represents the IC50 value (nM) of a PI3Kδ enzyme inhibitory activity, and PI3Kα represents the IC50 value (nM) of a PI3Kα enzyme inhibitory activity.
On the technique in general: Time-resolved FRET reads energy transfer from a long-lived donor to a nearby acceptor.

Experiment [2] has as its system Spleen cells (B cell proliferation). In words: Rat B cell proliferation inhibition test (anti-rat IgM, [3H]thymidine). Type of experiment: cell-based. The note with it: anti-rat IgM 3 μg/well, 48 hours culture, [3H]thymidine uptake. The protocol:
4. Rat B Cell Proliferation Inhibition Test
Spleen cells (1.0×10^5 cells/well) prepared from male LEW/CrlCrlj rats (Charles River Laboratories, Japan, Inc.), mouse F(ab′)2 fragment anti-rat IgM (3 μg/well, SouthernBiotech Associates, Inc., Catalogue No. 3082-14) and the test compound dissolved in DMSO (final DMSO concentration 0.1%) were mixed in a 96-well plate using a 10% FCS-containing RPMI-1640 culture medium (total 200 μL). They were cultured in a CO2 incubator for 48 hours and [^3H]thymidine (925 GBq/mmol, Moravek Biochemicals, Inc., Catalogue No. MT6038) was added thereto at 0.037 MBq/well at 4 hours before completion of culture. Cells were harvested in a GF/C glass filter using a cell harvester, and a radioactivity on the filter was measured using a liquid scintillation counter. The IC50 value of the compound was calculated, taking the dpm (disintegration per minute) without addition of IgM as an inhibition rate of 100% and the dpm without addition of the test compound as an inhibition rate of 0%, by a logistic method.

Experiment [3] concerns the target T2, Human PI3Kα (Homo sapiens, UniProt P42336).
T2 construct: purchased Millipore Corporation 14-602
In words: PI3Kα enzyme inhibitory activity (Kinase-Glo Plus luminescence). Conditions: Human PI3Kα 12 ng/well, phosphatidylinositol 0.2 μg/well, 37° C. for 3 hours. The format is biochemical. How it is done:
2. PI3Kα Enzyme Inhibitory Activity
Human PI3Kα (12 ng/well, Millipore Corporation, Catalogue No. 14-602), phosphatidylinositol (0.2 μg/well), and the test compound were mixed in a 384-well plate in a reaction buffer (50 mM Hepes, 10 mM NaCl, 10 mM MgCl2, 2 mM EGTA, 2 mM DTT, pH 7.3) (total 10 μl), and incubated at 37° C. for 3 hours. After the reaction, 10 μL of a Kinase-Glo Plus reagent (Promega, Catalogue No. V3772) was added thereto, and a luminescence was measured with a luminometer. The IC50 value of the compound was calculated, taking the inhibition rate without addition of the enzyme as 100% and the inhibition rate without addition of the test compound as 0%, by a logistic method.
as §1

SMILES strings stand for the structures.

T2 sequence (P42336 whole entry): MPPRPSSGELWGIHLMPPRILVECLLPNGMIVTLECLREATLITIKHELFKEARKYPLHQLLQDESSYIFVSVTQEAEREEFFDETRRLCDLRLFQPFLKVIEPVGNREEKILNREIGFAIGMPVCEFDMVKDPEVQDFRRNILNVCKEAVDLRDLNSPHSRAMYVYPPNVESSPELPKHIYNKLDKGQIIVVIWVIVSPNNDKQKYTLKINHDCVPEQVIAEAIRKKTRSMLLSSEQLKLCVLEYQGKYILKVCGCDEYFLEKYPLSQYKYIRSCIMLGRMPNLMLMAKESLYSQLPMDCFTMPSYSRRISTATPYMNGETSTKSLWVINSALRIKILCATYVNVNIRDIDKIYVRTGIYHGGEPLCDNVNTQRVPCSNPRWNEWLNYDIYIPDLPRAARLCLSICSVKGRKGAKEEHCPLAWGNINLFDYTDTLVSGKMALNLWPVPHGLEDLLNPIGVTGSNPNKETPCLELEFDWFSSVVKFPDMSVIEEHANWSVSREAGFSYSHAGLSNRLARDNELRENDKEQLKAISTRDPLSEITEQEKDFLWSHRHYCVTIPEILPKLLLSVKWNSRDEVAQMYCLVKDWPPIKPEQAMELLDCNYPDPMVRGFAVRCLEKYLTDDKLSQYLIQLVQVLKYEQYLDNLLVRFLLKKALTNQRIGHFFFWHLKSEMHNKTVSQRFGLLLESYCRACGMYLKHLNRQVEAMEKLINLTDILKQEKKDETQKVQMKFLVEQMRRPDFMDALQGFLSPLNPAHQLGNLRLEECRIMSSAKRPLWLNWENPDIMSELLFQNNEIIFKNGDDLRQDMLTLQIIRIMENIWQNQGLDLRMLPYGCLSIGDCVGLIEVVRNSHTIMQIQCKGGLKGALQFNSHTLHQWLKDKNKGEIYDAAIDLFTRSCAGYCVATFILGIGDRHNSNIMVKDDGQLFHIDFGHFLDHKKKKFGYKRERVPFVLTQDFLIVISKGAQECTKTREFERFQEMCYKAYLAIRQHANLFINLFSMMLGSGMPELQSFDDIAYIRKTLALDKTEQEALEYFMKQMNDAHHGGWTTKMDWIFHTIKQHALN
T2 sequence (P27986 whole entry partner): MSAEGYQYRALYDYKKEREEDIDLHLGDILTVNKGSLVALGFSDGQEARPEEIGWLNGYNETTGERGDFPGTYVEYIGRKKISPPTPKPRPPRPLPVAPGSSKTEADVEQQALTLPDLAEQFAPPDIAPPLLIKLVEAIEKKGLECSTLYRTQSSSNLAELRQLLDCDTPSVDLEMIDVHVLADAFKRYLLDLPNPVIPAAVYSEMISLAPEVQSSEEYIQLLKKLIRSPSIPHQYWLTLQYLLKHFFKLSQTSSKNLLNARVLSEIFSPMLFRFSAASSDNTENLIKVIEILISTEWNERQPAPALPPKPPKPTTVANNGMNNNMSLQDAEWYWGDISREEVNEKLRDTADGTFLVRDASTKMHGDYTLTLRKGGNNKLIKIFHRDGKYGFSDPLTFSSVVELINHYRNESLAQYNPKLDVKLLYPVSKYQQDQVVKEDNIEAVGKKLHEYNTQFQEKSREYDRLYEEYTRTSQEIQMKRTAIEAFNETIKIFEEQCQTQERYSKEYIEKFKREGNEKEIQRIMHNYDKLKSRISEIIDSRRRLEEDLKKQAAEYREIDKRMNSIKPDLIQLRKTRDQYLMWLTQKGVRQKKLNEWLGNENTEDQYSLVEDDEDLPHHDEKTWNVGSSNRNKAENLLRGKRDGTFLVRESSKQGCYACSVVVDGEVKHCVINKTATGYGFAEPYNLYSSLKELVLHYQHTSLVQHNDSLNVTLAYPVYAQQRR
T1 sequence (O00329 whole entry): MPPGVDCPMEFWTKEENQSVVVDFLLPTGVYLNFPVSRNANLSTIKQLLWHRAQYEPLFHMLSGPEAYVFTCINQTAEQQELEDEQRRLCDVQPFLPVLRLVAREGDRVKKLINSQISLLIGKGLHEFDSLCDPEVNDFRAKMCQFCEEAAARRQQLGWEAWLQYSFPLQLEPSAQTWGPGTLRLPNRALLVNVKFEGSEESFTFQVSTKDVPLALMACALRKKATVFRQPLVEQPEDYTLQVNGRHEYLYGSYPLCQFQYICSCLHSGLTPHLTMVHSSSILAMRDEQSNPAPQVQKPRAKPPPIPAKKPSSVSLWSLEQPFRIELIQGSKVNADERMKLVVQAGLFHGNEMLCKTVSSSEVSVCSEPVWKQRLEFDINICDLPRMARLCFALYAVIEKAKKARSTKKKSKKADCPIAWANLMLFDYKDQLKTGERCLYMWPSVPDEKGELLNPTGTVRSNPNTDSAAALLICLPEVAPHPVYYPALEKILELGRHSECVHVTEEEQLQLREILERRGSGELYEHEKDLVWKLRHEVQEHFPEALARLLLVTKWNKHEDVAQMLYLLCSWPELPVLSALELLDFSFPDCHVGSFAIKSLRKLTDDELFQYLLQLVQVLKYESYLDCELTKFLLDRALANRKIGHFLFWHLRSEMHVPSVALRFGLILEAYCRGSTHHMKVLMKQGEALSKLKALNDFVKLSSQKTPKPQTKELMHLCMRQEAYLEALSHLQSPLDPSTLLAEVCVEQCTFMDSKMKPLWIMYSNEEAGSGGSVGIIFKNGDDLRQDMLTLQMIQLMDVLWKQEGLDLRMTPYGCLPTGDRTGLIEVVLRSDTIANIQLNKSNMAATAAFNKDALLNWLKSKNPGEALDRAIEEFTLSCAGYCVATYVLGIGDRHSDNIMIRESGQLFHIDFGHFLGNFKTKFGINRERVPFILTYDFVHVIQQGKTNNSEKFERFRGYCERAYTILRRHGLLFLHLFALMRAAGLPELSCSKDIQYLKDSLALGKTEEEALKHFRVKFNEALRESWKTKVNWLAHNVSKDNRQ
T1 sequence (P27986 whole entry partner): as the sequence (P27986 whole entry partner) above

`COCC(C)N[C@H]1CC[C@H](CNc2nc(N3CCOCC3)cc(-n3c(C(F)F)nc4ccccc43)n2)CC1` (stereo partly drawn) [Example 399]: the IC50 in experiment [1] turned out to be 22 nM; in experiment [2] it was 3.4 nM; in experiment [3], 3200 nM.
The matching figures for `CN(CCO)[C@H]1CC[C@H](CNc2nc(N3CCOCC3)cc(-n3c(C(F)F)nc4ccccc43)n2)CC1` [Example 274]: 9.7 nM, 5.5 nM and more than 3000 nM.
The corresponding values for `CCN(C(C)COC)[C@H]1CC[C@H](CNc2nc(N3CCOCC3)cc(-n3c(C(F)F)nc4ccccc43)n2)CC1` (stereo partly drawn) [Example 435] are 2.8 nM, 0.58 nM and 950 nM.
The matching figures for `CCN(C(C)C(C)(C)O)[C@H]1CC[C@H](CNc2nc(N3CCOCC3)cc(-n3c(C(F)F)nc4ccccc43)n2)CC1` (stereo partly drawn) [Example 471]: 8.1 nM, 1.3 nM and 1700 nM.
`COCC(C)N(C)[C@H]1CC[C@H](CNc2nc(N3CCOCC3)cc(-n3c(C(F)F)nc4ccccc43)n2)CC1` (stereo partly drawn) [Example 434]: the IC50 is 4.3 nM in experiment [1], 1.3 nM in experiment [2] and 1900 nM in experiment [3].
The corresponding values for `C=CCN(C(C)COC)[C@H]1CC[C@H](CNc2nc(N3CCOC[C@@H]3C)cc(-n3c(C(F)F)nc4ccccc43)n2)CC1` (stereo partly drawn) [Example 491] are 4.5 nM, 1.8 nM and 570 nM.
The corresponding values for `COCC(C)N(C)[C@H]1CC[C@H](CNc2nc(N3CCOC[C@H]3C)cc(-n3c(C(F)F)nc4ccccc43)n2)CC1` (stereo partly drawn) [Example 507] are 4.9 nM, 0.38 nM and 490 nM.
The matching figures for `COC[C@@H]1CCCN1[C@H]1CC[C@@H](CNc2cc(-n3c(C(F)F)nc4ccccc43)nc(N3CCOCC3)n2)CC1` [Example 512]: 23 nM, 10 nM and more than 10000 nM.
Consider `FC[C@@H]1CCCN1[C@H]1CC[C@H](CNc2nc(N3CCOCC3)cc(-n3c(C(F)F)nc4ccccc43)n2)CC1` [Example 515], for which the IC50 turned out to be 6 nM in experiment [1], 4.1 nM in experiment [2] and 1200 nM in experiment [3].
The corresponding values for `FC(F)c1nc2ccccc2n1-c1cc(NC[C@H]2CC[C@H](N3CCOCC3)CC2)nc(N2CCOCC2)n1` [Example 223] are 6.2 nM, 1.5 nM and more than 10000 nM.
In the case of `FC(F)c1nc2ccccc2n1-c1cc(NC[C@H]2CC[C@H](N3CCC[C@H]3CN3CCCC3)CC2)nc(N2CCOCC2)n1` [Example 527], the IC50 in experiment [1] turned out to be 14 nM; in experiment [2] it was 2.8 nM; in experiment [3] it was 5700 nM.
Turning to `COCCN[C@H]1CC[C@H](CNc2cc(-n3c(C(F)F)nc4ccccc43)nc(N3CCOCC3)n2)CC1` [Example 496], the IC50 turned out to be 17 nM in experiment [1], 1.7 nM in experiment [2] and 7600 nM in experiment [3].
The corresponding values for `O=C(CN1CCCC1)N[C@H]1CC[C@H](Oc2cc(-n3c(C(F)F)nc4ccccc43)nc(N3CCOCC3)n2)CC1` [Example 473] are 30 nM, 4 nM and 9900 nM.
The corresponding values for `CC(C)(O)[C@@H]1CCCN1C1CCC(CNc2cc(-n3c(C(F)F)nc4ccccc43)nc(N3CCOCC3)n2)CC1` (stereo partly drawn) [Example 487] are 7.9 nM, 1.4 nM and 4400 nM.
The matching figures for `COCC(C)N(C)[C@H]1CC[C@H](CNc2nc(N3CCOC[C@@H]3C)cc(-n3c(C(F)F)nc4ccccc43)n2)CC1` (stereo partly drawn) [Example 447]: 5.3 nM, 0.77 nM and 2900 nM.
`CC(N(C)[C@H]1CC[C@H](CNc2nc(N3CCOC[C@@H]3C)cc(-n3c(C(F)F)nc4ccccc43)n2)CC1)C(C)(C)O` (stereo partly drawn) [Example 505]: the IC50 was found to be 4.1 nM in experiment [1], 0.46 nM in experiment [2] and 450 nM in experiment [3].
The matching figures for `C[C@@H]1COCCN1[C@H]1CC[C@H](CNc2cc(-n3c(C(F)F)nc4ccccc43)nc(N3CCOCC3)n2)CC1` [Example 546]: 50 nM, 2.2 nM and 5500 nM.
The corresponding values for `FC[C@@H]1CCN1[C@H]1CC[C@H](CNc2cc(-n3c(C(F)F)nc4ccccc43)nc(N3CCOCC3)n2)CC1` [Example 539] are 7.6 nM, 0.84 nM and 2200 nM.
The matching figures for `FC[C@@H]1CCCN1[C@H]1CC[C@H](CNc2cc(-n3c(C(F)F)nc4ccccc43)nc(N3CCOCC3)n2)CC1` [Example 484]: 1.5 nM, 2.2 nM and 2600 nM.
In the case of `FC[C@H]1CCCN1[C@H]1CC[C@H](CNc2cc(-n3c(C(F)F)nc4ccccc43)nc(N3CCOCC3)n2)CC1` [Example 511], the values for the IC50 in experiment [1], in experiment [2] and in experiment [3] were 4.7 nM, 1.2 nM and 2000 nM, respectively.
In the case of `CCN(C(C)COC)[C@H]1CC[C@H](CNc2nc(N3CCOC[C@H]3C)cc(-n3c(C(F)F)nc4ccccc43)n2)CC1` (stereo partly drawn) [Example 508], the IC50 in experiment [1] came to 4.6 nM; in experiment [2] it was 0.37 nM; in experiment [3] it was 620 nM.
The corresponding values for `C#CCN[C@H]1CC[C@H](CNc2nc(N3CCOCC3)cc(-n3c(C(F)F)nc4ccccc43)n2)CC1` [Example 422] are 6 nM, 4.9 nM and 5800 nM.
In the case of `CC(N(C)[C@H]1CC[C@H](CNc2nc(N3CCOC[C@H]3C)cc(-n3c(C(F)F)nc4ccccc43)n2)CC1)C(C)(C)O` (stereo partly drawn) [Example 506], the IC50 stood at 4.3 nM in experiment [1], 0.75 nM in experiment [2] and 590 nM in experiment [3].
Consider `COCCN(CC1CC1)[C@H]1CC[C@H](CNc2nc(N3CCOCC3)cc(-n3c(C(F)F)nc4ccccc43)n2)CC1` [Example 271], for which the IC50 in experiment [1] stood at 2.6 nM; in experiment [2], 5.5 nM; in experiment [3], 2500 nM.
The matching figures for `C=CCN(CC(C)(C)O)[C@H]1CC[C@H](CNc2nc(N3CCOCC3)cc(-n3c(C(F)F)nc4ccccc43)n2)CC1` [Example 442]: 10 nM, 1.2 nM and 2700 nM.
The matching figures for `CC(C)(O)[C@@H]1CCCN1C1CCC(CNc2nc(N3CCOCC3)cc(-n3c(C(F)F)nc4ccccc43)n2)CC1` (stereo partly drawn) [Example 490]: 9.4 nM, 0.76 nM and 1600 nM.
The matching figures for `COC[C@@H]1CCCN1[C@H]1CC[C@H](CNc2cc(-n3c(C(F)F)nc4ccccc43)nc(N3CCOCC3)n2)CC1` [Example 513]: 3.5 nM, 0.64 nM and 3100 nM.
As for `FC(F)c1nc2ccccc2n1-c1cc(N2CCOCC2)nc(NC[C@H]2CC[C@H](N3CCCCC3)CC2)n1` [Example 177], the IC50 was 4.8 nM in experiment [1], 1.1 nM in experiment [2] and more than 3000 nM in experiment [3].
